Tests used:
[1] = molecular target: T1, Human immunodeficiency virus type 1 reverse transcriptase (Human immunodeficiency virus 1, UniProt Q72547); experiment: Evaluated for inhibition of HIV-1 reverse transcriptase; Inactive means <50% inhibition at 100 ug/mL concentration
[2] = molecular target: T1, Human immunodeficiency virus type 1 reverse transcriptase; experiment: Evaluated for inhibition of HIV-1 reverse transcriptase
[3] = molecular target: T1, Human immunodeficiency virus type 1 reverse transcriptase; experiment: Compound was evaluated for inhibition of HIV-1 reverse transcriptase using rC.dG and [3H]dGTP as substrates at 100 ug/mL
[4] = molecular target: T1, Human immunodeficiency virus type 1 reverse transcriptase; experiment: Compound was evaluated for inhibition of HIV-1 reverse transcriptase using rC.dG and [3H]dGTP as substrates at 100 ug/ml

| Structure (SMILES) | IC50 [1] | IC50 [2] | further results |
| --- | --- | --- | --- |
| CN(CC(=O)Nc1ccc(Br)cc1C(=O)O)CC(=O)Nc1ccc(Br)cc1C(=O)O | Not Active |  |  |
| O=C(CCCCC(=O)Nc1ccc(Br)cc1C(=O)O)Nc1ccc(Br)cc1 |  | 15 µM |  |
| O=C(Cc1cccc(CC(=O)Nc2ccc(Br)cc2C(=O)O)c1)Nc1ccc(Br)cc1C(=O)O | Not Active |  |  |
| O=C(CCCCC(=O)Nc1ccccc1C(=O)O)Nc1ccccc1C(=O)O |  | 21 µM |  |
| O=C(CCCCC(=O)Nc1ccc(F)cc1C(=O)O)Nc1ccc(F)cc1C(=O)O |  | > 120 µM |  |
| O=C(Nc1ccc(Br)cc1C(=O)O)c1ccnc(C(=O)Nc2ccc(Br)cc2C(=O)O)c1 |  | 66 µM |  |
| O=C(CCCC(=O)Nc1ccc(Cl)cc1C(=O)O)Nc1ccc(Cl)cc1C(=O)O |  | 8.7 µM |  |
| O=C(Nc1ccc(Br)cc1C(=O)O)c1cccc(C(=O)Nc2ccc(Br)cc2C(=O)O)n1 | Not Active |  |  |
| O=C(Nc1ccc(Br)cc1C(=O)O)c1cncc(C(=O)Nc2ccc(Br)cc2C(=O)O)c1 | Not Active |  |  |
| O=C(CCCCC(=O)Nc1ccc(Br)cc1)Nc1ccccc1 | Not Active |  |  |
| O=C(CCCCC(=O)Nc1ccccc1C(=O)O)Nc1ccc(Br)cc1 | Not Active |  |  |
| O=C(CCCCC(=O)Nc1ccccc1C(=O)O)Nc1ccccc1 | Not Active |  |  |
| O=C(CCCCC(=O)Nc1ccc(Br)cc1C(=O)O)Nc1ccc(Br)cc1C(=O)O |  | 3.1 µM |  |
| O=C(CCCCCCC(=O)Nc1ccc(Br)cc1C(=O)O)Nc1ccc(Br)cc1C(=O)O |  |  | IC50 [3]: 18 µM |
| O=C(COCC(=O)Nc1ccc(Br)cc1C(=O)O)Nc1ccc(Br)cc1C(=O)O | Not Active |  |  |
| O=C(CCCCCC(=O)Nc1ccc(Cl)cc1C(=O)O)Nc1ccc(Cl)cc1C(=O)O |  | 9 µM |  |
| COc1ccc(NC(=O)CCCCC(=O)Nc2ccc(OC)cc2C(=O)O)c(C(=O)O)c1 |  | 10.6 µM |  |
| CC(=O)Nc1ccc(NC(=O)CCCCC(=O)Nc2ccc(NC(C)=O)cc2C(=O)O)c(C(=O)O)c1 |  |  | IC50 [4]: > 100 µM |
| O=C(Nc1ccc(Br)cc1C(=O)O)c1ccc(C(=O)Nc2ccc(Br)cc2C(=O)O)nc1 |  | 35 µM |  |
| O=C(CCCCC(=O)Nc1ccc(Cl)cc1C(=O)O)Nc1ccc(Cl)cc1C(=O)O |  | 8.7 µM |  |
| Cc1ccc(NC(=O)CCCCC(=O)Nc2ccc(C)cc2C(=O)O)c(C(=O)O)c1 |  | 14 µM |  |
| N#Cc1ccc(NC(=O)CCCCC(=O)Nc2ccc(C#N)cc2C(=O)O)c(C(=O)O)c1 |  | > 100 µM |  |
| CSc1ccc(NC(=O)CCCCC(=O)Nc2ccc(SC)cc2C(=O)O)c(C(=O)O)c1 |  | 19 µM |  |
| O=C(CCCCC(=O)Nc1ccc(Br)cc1C(=O)O)Nc1ccccc1 | Not Active |  |  |

— ChEMBL document CHEMBL1130588, “Biaryl acids: novel non-nucleoside inhibitors of HIV reverse transcriptase types 1 and 2” (Bioorg Med Chem Lett, 1998)
